Reference: US9956187B2 (priority 2014, dated 2018)
Structures can show the parent of a compound that is named as a salt.

What was measured:
Alpha1A = molecular target: T1, Alpha1A (Homo sapiens, UniProt P35348); test: Primary radioligand binding screen
T1 construct: expressed in transfected cells
Experimental: (§1) Evidence for interaction was based on the inhibition of the reference ligand-binding signal. […] Briefly, 50 μL aliquots of radioactive ligand (5 nM) were added to wells of a 96-well plate, which contained 25 μL of the reference or test ligands. We employed transfected cell lines expressing mainly human (unless otherwise specified) recombinant receptors, monoamine transporters, or ion channels for crude membrane preparation. Detailed information about our membrane preparation is well known in the art and can be obtained from publicly available protocol online. Crude membrane fractions containing the receptors were resuspended in standard binding buffer and 50 μL aliquots added to each well. The reactions were incubated at room temperature for 1.5 hours to allow for radioligand binding equilibration. Bound radioactivity was harvested by rapid filtration through a 0.3% polyethyleneimine-treated, 96-well filter mats using a 96-well Filtermate harvester. The dried filters were treated with melted scintillant and a Microbeta scintillation counter was utilized to measure the radioactivity retained on the filter.

Alpha1B = molecular target: T2, Alpha1B (Homo sapiens, UniProt P35368); test: Primary radioligand binding screen
T2 construct: expressed in transfected cells
T2 sequence (P35368 whole entry): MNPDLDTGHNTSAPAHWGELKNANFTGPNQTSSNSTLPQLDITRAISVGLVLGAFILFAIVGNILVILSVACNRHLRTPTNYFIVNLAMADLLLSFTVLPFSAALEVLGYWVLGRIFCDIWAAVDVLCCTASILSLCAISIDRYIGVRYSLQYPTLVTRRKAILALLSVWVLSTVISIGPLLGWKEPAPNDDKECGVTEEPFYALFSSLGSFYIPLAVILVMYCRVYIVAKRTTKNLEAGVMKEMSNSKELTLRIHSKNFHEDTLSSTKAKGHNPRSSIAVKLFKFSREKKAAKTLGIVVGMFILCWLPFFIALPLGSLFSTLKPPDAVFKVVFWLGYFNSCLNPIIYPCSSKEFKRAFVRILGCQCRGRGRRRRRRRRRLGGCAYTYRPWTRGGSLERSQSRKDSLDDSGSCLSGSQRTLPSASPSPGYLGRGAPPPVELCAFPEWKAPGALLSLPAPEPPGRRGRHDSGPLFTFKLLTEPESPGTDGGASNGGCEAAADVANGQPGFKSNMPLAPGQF
Experimental: as §1

D3 = molecular target: T3, D3 (Homo sapiens, UniProt P35462); test: Primary radioligand binding screen
T3 construct: expressed in transfected cells
T3 sequence (P35462 whole entry): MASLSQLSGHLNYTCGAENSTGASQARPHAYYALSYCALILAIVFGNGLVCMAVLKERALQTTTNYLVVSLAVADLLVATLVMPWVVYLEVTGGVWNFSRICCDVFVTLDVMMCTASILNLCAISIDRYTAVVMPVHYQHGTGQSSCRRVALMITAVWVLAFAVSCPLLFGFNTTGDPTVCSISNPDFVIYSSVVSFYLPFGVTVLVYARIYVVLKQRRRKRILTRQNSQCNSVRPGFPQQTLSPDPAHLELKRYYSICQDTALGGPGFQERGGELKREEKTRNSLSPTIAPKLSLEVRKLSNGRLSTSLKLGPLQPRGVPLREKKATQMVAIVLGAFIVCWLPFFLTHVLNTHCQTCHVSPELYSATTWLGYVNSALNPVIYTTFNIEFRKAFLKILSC
Experimental: as §1

D5 = molecular target: T4, D5 (Homo sapiens, UniProt P21918); test: Primary radioligand binding screen
T4 construct: expressed in transfected cells
T4 sequence (P21918 whole entry): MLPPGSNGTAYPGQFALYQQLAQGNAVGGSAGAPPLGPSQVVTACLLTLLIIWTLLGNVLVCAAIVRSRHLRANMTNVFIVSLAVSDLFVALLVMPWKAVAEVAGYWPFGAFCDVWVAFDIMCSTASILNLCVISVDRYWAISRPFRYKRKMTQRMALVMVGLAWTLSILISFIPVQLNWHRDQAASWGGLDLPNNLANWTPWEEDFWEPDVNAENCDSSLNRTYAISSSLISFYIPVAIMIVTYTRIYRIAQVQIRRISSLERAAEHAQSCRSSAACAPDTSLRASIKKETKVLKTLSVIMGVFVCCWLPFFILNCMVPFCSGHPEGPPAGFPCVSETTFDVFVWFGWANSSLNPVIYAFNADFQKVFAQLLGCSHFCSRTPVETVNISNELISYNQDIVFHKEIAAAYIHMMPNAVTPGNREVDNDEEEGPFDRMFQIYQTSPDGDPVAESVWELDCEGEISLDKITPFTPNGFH
Experimental: as §1

GABAA = test: Primary radioligand binding screen; set-up: species or system human; conditions: dezocine 10 μM
Experimental: as §1

H1 = molecular target: T5, H1 (Homo sapiens, UniProt P35367); test: biochemical; format: binding
T5 construct: expressed in transfected cells
T5 sequence (P35367 whole entry): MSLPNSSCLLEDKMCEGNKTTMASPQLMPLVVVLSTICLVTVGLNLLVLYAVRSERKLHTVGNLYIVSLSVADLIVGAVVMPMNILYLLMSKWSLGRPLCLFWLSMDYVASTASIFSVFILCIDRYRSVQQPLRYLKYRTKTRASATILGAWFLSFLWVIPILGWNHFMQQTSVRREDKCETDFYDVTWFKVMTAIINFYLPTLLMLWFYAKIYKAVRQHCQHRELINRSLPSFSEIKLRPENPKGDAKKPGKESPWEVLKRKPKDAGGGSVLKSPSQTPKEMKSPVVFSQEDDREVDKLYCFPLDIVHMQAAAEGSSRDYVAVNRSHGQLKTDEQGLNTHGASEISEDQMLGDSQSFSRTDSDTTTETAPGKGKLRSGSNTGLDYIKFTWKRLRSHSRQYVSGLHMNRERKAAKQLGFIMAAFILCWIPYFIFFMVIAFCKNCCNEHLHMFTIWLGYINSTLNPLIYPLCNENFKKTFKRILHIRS
Experimental: as §1

KOR = molecular target: T6, KOR (Homo sapiens, UniProt P41145); test: biochemical; format: binding
T6 construct: expressed in transfected cells
Experimental: as §1

MOR = molecular target: T7, MOR (Homo sapiens, UniProt P35372); test: biochemical; format: binding
T7 construct: expressed in transfected cells
T7 sequence (P35372 whole entry): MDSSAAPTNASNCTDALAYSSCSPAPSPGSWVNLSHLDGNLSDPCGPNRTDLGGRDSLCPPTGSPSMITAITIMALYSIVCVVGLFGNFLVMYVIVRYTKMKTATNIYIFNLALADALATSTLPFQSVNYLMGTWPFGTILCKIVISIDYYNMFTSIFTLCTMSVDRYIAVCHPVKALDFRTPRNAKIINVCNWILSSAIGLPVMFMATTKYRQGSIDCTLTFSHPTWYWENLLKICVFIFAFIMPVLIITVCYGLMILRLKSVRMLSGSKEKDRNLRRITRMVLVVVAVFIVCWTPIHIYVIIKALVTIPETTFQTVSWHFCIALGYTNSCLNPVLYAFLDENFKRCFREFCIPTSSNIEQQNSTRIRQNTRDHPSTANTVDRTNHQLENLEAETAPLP
Experimental: as §1

delta opioid receptor = molecular target: T8, delta opioid receptor (Homo sapiens, UniProt P41143); test: Secondary radioligand binding assay (affinity); conditions: mean±SE; read-out: Ki DOR
T8 construct: expressed in transfected cells
Experimental: (§2) The secondary binding assay was performed only when the inhibition in the primary screen was over 50%. A secondary binding assay was utilized to determine the binding affinity for the identified receptor.
(§3) 50 μL of a crude membrane fraction of cells expressing the respective receptors were applied to each well. Reaction incubation, harvesting and radioactivity measurement from the primary assay were repeated. Affinity is expressed as pKi (−log Ki).

[1] = molecular target: T9, norepinephrine transporter (NET) (Homo sapiens, UniProt P23975); test: Secondary radioligand binding assay (affinity); conditions: mean±SE
T9 construct: expressed in transfected cells
T9 sequence (P23975 whole entry): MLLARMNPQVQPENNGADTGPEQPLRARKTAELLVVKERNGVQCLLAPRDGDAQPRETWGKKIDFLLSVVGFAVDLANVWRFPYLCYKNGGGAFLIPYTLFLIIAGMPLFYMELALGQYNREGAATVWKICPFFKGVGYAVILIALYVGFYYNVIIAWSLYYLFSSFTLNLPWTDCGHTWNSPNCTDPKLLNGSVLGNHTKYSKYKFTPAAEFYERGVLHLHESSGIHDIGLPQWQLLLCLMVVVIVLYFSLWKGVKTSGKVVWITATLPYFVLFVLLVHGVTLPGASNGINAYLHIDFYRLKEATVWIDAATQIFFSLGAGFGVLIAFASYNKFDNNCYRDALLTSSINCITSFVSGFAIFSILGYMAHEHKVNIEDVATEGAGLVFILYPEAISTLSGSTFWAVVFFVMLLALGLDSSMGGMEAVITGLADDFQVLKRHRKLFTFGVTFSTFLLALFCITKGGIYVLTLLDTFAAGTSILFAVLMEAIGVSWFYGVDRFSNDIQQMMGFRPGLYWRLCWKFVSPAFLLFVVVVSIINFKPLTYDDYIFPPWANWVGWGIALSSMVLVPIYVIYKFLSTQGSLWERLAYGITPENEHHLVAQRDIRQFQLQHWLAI
Experimental: as §2, §3

[2] = molecular target: T10, serotonin transporter (SERT) (Homo sapiens, UniProt P31645); test: Secondary radioligand binding assay (affinity)
T10 construct: expressed in transfected cells
T10 sequence (P31645 whole entry): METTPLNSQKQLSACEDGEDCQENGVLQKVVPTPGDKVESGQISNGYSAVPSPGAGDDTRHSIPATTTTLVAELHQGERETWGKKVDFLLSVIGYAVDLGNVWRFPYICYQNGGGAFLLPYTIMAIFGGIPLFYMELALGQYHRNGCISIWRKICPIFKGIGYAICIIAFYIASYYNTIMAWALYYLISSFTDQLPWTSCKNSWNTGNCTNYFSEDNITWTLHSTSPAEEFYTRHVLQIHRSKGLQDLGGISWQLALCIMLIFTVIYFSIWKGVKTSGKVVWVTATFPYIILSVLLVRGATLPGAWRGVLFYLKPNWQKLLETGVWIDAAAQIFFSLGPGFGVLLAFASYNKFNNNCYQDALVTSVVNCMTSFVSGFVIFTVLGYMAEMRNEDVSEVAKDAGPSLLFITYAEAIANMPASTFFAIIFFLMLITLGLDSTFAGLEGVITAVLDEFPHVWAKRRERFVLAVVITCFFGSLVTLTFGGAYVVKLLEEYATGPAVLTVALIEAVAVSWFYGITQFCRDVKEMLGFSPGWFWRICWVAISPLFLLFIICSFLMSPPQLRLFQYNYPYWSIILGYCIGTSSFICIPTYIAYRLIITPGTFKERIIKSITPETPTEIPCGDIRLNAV
Experimental: as §2, §3

human cloned NET = molecular target: T11, human cloned NET (Homo sapiens, UniProt P23975); test: Norepinephrine reuptake assay in HEK 293 cells; format: cell-based; conditions: mean±SE
T11 construct: expressed in transfected cells
T11 sequence (P23975 whole entry): as the sequence (P23975 whole entry) above
Experimental: (§4) In brief, Human Embryonic Kidney 293 cells were plated in Poly-L-Lys (PLL) coated 384-well black clear bottom cell culture plates in DMEM+1% dFBS, at a density of 15,000 cells per well in a total volume of 40 μl. The cells were incubated for a minimum of 6 hours before use in the assays. The medium was removed and 20 μL of assay buffer (20 mM HEPES, 1×HBSS, pH 7.40) was added, followed by 5 μL of 5× drug solutions. The plate was incubated at 37° C. for 30 min. After the incubation, 25 μL of dye solution was added and fluorescence intensity was measured after […] at 37° C., using FlexStation II (bottom read mode, Excitation at 440 nm, Emission at 520 nm with 510 nm cut-off) from the Molecular Devices. […] The half maximal inhibitory concentration were determined and expressed as pIC50 (pIC50=−log (IC50)).

human cloned SERT = molecular target: T12, human cloned SERT (Homo sapiens, UniProt P31645); test: Serotonin reuptake assay in HEK 293 cells; format: cell-based; conditions: mean±SE
T12 construct: expressed in transfected cells
T12 sequence (P31645 whole entry): as the sequence (P31645 whole entry) above
Experimental: as §4

[3] = tested on: chronic constriction injury (CCI) rats; test: Thermal hyperalgesia, paw withdrawal latency in CCI model; format: in vivo, rat; conditions: 3 mg/kg IP daily, days 1-10 after CCI, vs NS group, P<0.05
Experimental: CCI procedures on the sciatic nerve of male SD rats were performed as previously described. Briefly, after rats were anesthetized by i.p. injection of sodium pentobarbital (40 mg/kg), the right sciatic nerve of the mid-thigh level was exposed. Chromic gut 4-0 was loosely tied around the nerve for 4 ligatures with about 1 mm between knots. The ligation was performed to just barely reduce the diameter of sciatic nerve. […] In the sham group, the sciatic nerve was exposed without ligation. The incisions of rats were closed in layers. After recovery from anesthesia, rats were housed individually in the clear plastic cages with soft bedding covered with 3-6 cm of sawdust.
Same volume of normal saline (2 ml) was injected in the other two groups at the same time.
The paw withdrawal latency (PWL) to radiant heat was used to evaluate thermal hyperalgesia for nociceptive response as previously described. Rats were placed in transparent plexiglass cage (23×18×13 cm) with a piece of 3-mm-thick glass floor and received heat radiation after acclimating to the environments for 30 minutes. […] A digital timer automatically measured the duration between the starting of heat and the paw withdrawal, which was considered as the PWL. The PWL was measured in 0.1 second and a maximum of 20 seconds exposure to radiation was set to avoid injury. […]

morphine dependent rats [4] = test: Astrocyte activation in nucleus accumbens; format: in vivo, rat
[5] = hydrobromide salt; cited from earlier work
kappa opioid receptor = kappa opioid receptor (Homo sapiens, UniProt P41145); format: binding; set-up: expressed in transfected cells; conditions: mean±SE; read-out: Ki KOR
Experimental: as §2, §3

morphine dependent rats [6] = test: Morphine withdrawal syndrome scoring
Experimental: (1) The same volumes of normal saline (NS) were received subcutaneously in the naïve group. All other interventional drugs are administered by intraperitoneal injection.

[7] = Solubilizing dezocine in formulations
Description: All further solutions were created at about pH 4. […] No higher concentrations were attempted with this formulation.

T1 sequence (P35348 whole entry): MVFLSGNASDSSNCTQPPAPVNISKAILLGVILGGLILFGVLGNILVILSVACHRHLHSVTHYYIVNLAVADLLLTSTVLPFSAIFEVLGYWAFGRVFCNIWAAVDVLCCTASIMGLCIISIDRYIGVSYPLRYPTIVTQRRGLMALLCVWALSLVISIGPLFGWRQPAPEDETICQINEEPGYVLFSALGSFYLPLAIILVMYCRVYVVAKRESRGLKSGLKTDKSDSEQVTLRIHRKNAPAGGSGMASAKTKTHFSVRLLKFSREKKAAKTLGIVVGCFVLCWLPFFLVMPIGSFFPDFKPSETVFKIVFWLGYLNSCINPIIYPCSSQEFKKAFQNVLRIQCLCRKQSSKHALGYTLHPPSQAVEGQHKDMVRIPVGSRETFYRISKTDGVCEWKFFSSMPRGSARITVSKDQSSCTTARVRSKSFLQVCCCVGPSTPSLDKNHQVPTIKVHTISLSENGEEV

**Q.** What does the source list for `C[C@@]12CCCCC[C@@H](Cc3ccc(O)cc31)[C@@H]2N` [Dezocine, (−)-13β-amino-5,6,7,8,9,10,11,12-octahydro-5α-methyl-5,11-methanobenxocyclodecen-31-ol, hydrobromide]?
**A.** inhibition at 10 µM (Alpha1A): 4.9%; inhibition at 10 µM (Alpha1B): 14.7%; inhibition at 10 µM (D3): -9.4%; inhibition at 10 µM (D5): -6.3%; % inhibition (GABAA): −10.1%; inhibition at 10 µM (H1): 20.7%; inhibition at 10 µM (KOR): 91.3%; inhibition at 10 µM (MOR): 89.6%; Ki (delta opioid receptor): 527 ± 70 nM; pKi NET [1]: 6.00±0.10; Ki ([2]; FIG. 12): 111 nM; pKi SERT ([2]; mean±SE): 6.96±0.08; pIC50 at NET (norepinephrine reuptake) (human cloned NET): 5.68±0.11; pIC50 of SERT (serotonin reuptake) (human cloned SERT): 5.86±0.17; paw withdrawal latency (PWL) [3]: significantly improved; astrocyte activation in nucleus accumbens (morphine dependent rats [4]): significantly inhibited; solubility of the salt [5]: 20000 µg/mL; Ki (kappa opioid receptor): 31.9 ± 1.9 nM; total score of morphine withdrawal symptoms (morphine dependent rats [6]; days 1-7, vs DMSO group, n=12, P<0.01 (FIG. 18)): alleviated the morphine withdrawal syndrome; total score of morphine withdrawal symptoms (morphine dependent rats [6]; dezocine 5 mg/kg IP, days 1-7, vs NS group, P<0.01): decreased significantly; Maximum Dezocine Concentration ([7]; 31% Propylene Glycol, 1% Lactic Acid, highest concentration attempted): 30 mg/mL; solubility ([7]; 31% propylene glycol, 6% PVOH solution, pH 4, aqueous with cosolvent or surfactant or cyclodextrin): 10000 µg/mL; Maximum Dezocine Concentration ([7]; 50% Propylene Glycol): 2 mg/mL; Maximum Dezocine Concentration ([7]; Ethanol (200-proof), highest concentration attempted): 1 mg/mL; Maximum Dezocine Concentration ([7]; Propylene Glycol (pure)): 10 mg/mL; Maximum Dezocine Concentration ([7]; Water): insoluble; solubility ([7]; water): < 1000 µg/mL
